Results published in patent US20150306232A1, “HYDROGELATORS COMPRISING D-AMINO ACIDS” (BRANDEIS UNIVERSITY, priority 2012, published 2015).
Non-standard residues stand in square brackets, D forms with d. Residues, ends and D or L forms follow the SMILES beside them. *: point of attachment. Naproxen = COc1ccc2cc([C@H](C)C(=O)*)ccc2c1

Experiments:
HeLa cells = experiment: live cell imaging of intracellular self-assembly; format: cell-based; conditions: 500 μM
Method: We seeded 2×10^5 of HeLa cells in Glass Chamber (Thermo Scientific Nunc Lab-Tek, 2-well) with MEM medium (2 mL) that was supplemented with 10% FBS, 100 U/mL penicillin and 100 mg mL 21 streptomycin for 4 h to allow the cell attachment. In order to perform the PTP1B Inhibition assay, we then replaced the culture medium in both wells and re-incubated the cells for 1 h, for which one-half of the wells was incubated in the medium containing 25 μM CinnGEL 2Me (novel inhibitor of PTP1B, prepared by reconstitution in DMSO), other well as a control was in the culture medium plus the same volume of DMSO. Ishino, Y.; et al. Mol. Vis. 2008, 14, 61. After that, we replaced the medium and washed the HeLa cells with PBS buffer for three times. Then we fixed the cell containing glass chamber on the confocal microscope stage, and replaced the PBS buffer with 1 mL solution of our fluorescent hydrogelators (500 μM, dissolved in PBS buffer) for each well. The sample we added into the PTP1B inhibition well also contained 25 μM of CinnGEL 2Me. Thereafter fluorescent images were captured immediately in the xyt mode with a delay of 11.64 s between frames.

[1] = enzymatic hydrogelation with ALP; format: physicochemical; conditions: 1.0 U/mL ALP, pH 7.6, 0.4-1.0 wt %
Method: To investigate the enzymatic hydrogelation of the D-peptidic precursor 11b, we prepared a series of hydrogels formed by using ALP to treat 11b at different concentrations. After dissolving 1.0, 2.0, 3.0, 4.0, and 5.0 mg of 11b in 0.5 mL of water (pH 7.6), respectively, we obtained clear solutions of 11b with different concentrations. The treatment of the solutions of 11b with ALP (1.0 U/mL) afforded the molecules of hydrogelator 12b, which are less soluble than 11b and thus self-assemble in water to form hydrogels when the concentrations of 12b are sufficient.
All the compounds were dissolved in de-ionized water. We then adjusted pH of the solutions carefully adding 1 M of NaOH and 1 M of HCl and measured the values by pH paper (pH 6.0-8.0). After prepared clear weakly basic solutions (pH 7.6 or 7.4), we then formed the hydrogels by adding enzymes (alkaline phosphatase).

ALP = experiment: enzymatic dephosphorylation followed by 31P NMR; format: biochemical; conditions: 1.0 wt %, 0.02 U/mL ALP, pH 7.6, 25° C.
Method: To evaluate the rate of enzymatic hydrogelation process, we used ^31P NMR and rheology to study the transformation of the precursors 11a and 11b upon the treatment of ALP (FIG. 26). We first dissolved 10 mg of 11a and 11b into 1.0 mL of water at pH 7.6, respectively, to afford clear solutions with concentrations of 1.0 wt %. Once adding 0.02 U/mL of alkaline phosphates, we immediately monitored the solutions of 11a and 11b by ^31P NMR and oscillatory rheology at 25° C. The ^31P NMR spectra at 3 min, 1 h, 2 h, 4 h, 6 h, 8 h, 10 h, 12 h, 14 h, 18 h, 24 h, and 48 h indicate that the phosphate groups on the L-tyrosine of 11a and D-tyrosine 11b (δ=−2.7) become free phosphates (δ=0.0) at almost same rate, and dephosphorylation finishes after 48 hours. […] FIGS. 26C and 26D display the time dependent rheology studies of 11a and 11b. At the beginning, values of G″ are higher than the values of G′ for the solutions of 11a and 11b, indicating both of them are fluids. However, as 11a and 11b slowly turn into hydrogelators 12a and 12b by enzymatic dephosphorylation, the solutions start to form solid-like hydrogels with values of G′ become higher than those of G″. The gelation points for 12a and 12b, at where G′s intersect with G″s, are both achieved around 5 hours after the addition of enzyme. […]

COX-1 = COX-1 (μM)
Excerpt: (§1) Table printed on a drawing sheet, Figure 7
Head of the field: COX-1 (μM)
(§2) First copying reader's note: The head cell at top left is split by a diagonal line (IC50 for the columns, Hydrogel for the rows); the footnote for the mark ^a is not printed on the sheet.
Where the first naming reader finds the target: head: COX-1 (μM)

COX-2 = COX-2 (Homo sapiens, UniProt P35354); experiment: COX-2 (μM)
Excerpt: as §1
Head of the field: COX-2 (μM)
as §2
Where the first naming reader finds the target: head: COX-2 (μM)

COX-1 (ovine) enzyme = molecular target: T1, COX-1 (ovine) enzyme (Ovis aries, UniProt P05979); experiment: COX Fluorescent Inhibitor Screening Assay, COX-1; format: biochemical; conditions: read-out: IC50 for inhibiting COX-1 enzyme
T1 construct: purchased Cayman Chemical 700100
T1 sequence (P05979 25-600): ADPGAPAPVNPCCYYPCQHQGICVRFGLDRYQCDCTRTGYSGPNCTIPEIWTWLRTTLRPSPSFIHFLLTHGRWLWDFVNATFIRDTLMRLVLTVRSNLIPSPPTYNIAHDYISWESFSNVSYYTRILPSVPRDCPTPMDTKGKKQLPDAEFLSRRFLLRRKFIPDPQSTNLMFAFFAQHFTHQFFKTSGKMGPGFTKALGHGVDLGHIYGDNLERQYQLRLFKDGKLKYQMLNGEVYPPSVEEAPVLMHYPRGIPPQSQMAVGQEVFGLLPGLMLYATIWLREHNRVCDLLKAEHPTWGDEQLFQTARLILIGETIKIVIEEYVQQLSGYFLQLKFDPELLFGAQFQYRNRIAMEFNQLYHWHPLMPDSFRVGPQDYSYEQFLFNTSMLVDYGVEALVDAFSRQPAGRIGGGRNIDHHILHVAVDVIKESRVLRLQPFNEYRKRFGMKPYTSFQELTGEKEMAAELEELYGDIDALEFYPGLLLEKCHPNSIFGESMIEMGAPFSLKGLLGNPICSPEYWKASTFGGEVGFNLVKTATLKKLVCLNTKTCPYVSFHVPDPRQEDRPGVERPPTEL
Method: To study the drug efficacies of NSAID containing hydrogelators, here we used ‘COX Fluorescent Inhibitor Screening Assay Kit’ (700100; Cayman Chemical) to do in vitro inhibition assays for Npx and Npx containing hydrogelors 1, 2, 3, 4, 5, and 6. Each compound was tested by COX-1 (ovine) enzyme and COX-2 (human recombinant) enzyme separately in 96 well black assay plates. By utilizing the peroxidase component of COXs, we monitored the reaction between PGG2 and ADHP (10-acetyl-3,7-dihydroxyphenoxazine), which produced highly fluorescent compound resorufin. This resorufin can be easily analyzed by multimode detector with an excitation wavelength of 530-540 nm and an emission wavelength of 585-595 nm. All the compounds are assayed in triplicate. After the combination of 10 μl of inhibitors, 10 μl of Heme solution, 10 μL of fluorometric substrate, 10 μl of enzyme (either COX-1 or COX-2), and 150 μl of assay buffer, we quickly add 10 μl of arachidonic acid solution to initiate the reaction. Then we read the plate exactly after two minutes incubation at room temperature. In this experiment, we also measure the blank data without enzyme and inhibitors, and the control data without inhibitors. The IC50 values of these hydrogelators were read from their activity curves (FIG. 18), which were measured with 5 different concentrations of these hydrogelators (dissolved in DMSO).

[2] = in vitro release of hydrogelators from hydrogels; format: physicochemical; conditions: 0.8 wt % hydrogel, PBS pH 7.4, 37° C., after 24 hours
Method: After studying their drug efficacies, the sustained release of Npx-containing hydrogelators from 0.8 wt % of hydrogels was studied. We incubated 100 μL of hydrogels at 37° C. for 24 hours with 100 μL of PBS buffer solution (pH 7.4), which is refreshed and monitored at 1 h, 2 h, 4 h, 8 h, 12 h, and 24 h. […] After 24 hours, hydrogel 1 slowly and steadily released 6.5% of the hydrogelator. […] Hydrogels 5 and 6 release 35.8% and 31.7% of hydrogelators after 24 h.
To illustrate the in vitro release profile of hydrogelators, we prepared 100 μL of the hydrogels formed by 1 (0.8 wt %, pH 4.0), 2 (0.8 wt %, pH 7.6), 3 (0.8 wt %, pH 7.6), 4 (0.8 wt %, pH 7.6), 5 (0.8 wt %, pH 7.0), and 6 (0.8 wt %, pH 7.0). With the addition of PBS buffer (100 μL, pH 7.4) onto the surface of hydrogels, the gels were incubated at 37° C. for 24 hours. The release solutions (100 μL) were taken and refreshed at […], 2 h, 4 h, 8 h, 12 h, and 24 h, which were detected by analytical HPLC at 276 nm for the quantities of released Npx containing hydrogelators 1, 2, 3, 4, 5, and 6.

[3] = rheological measurement of Npx containing hydrogels; format: physicochemical; conditions: hydrogel 0.8 wt %; for storage modulus G′: 6.28 rad/s
Method: Rheological tests were conducted on TA ARES G2 rheometer with TA Orchestrator Software. 25 mm cone-plate was used during the experiment. 0.2 mL of hydrogel sample was placed on the cone-plate.
The measurement performs at the frequency of 6.28 rad/s (0.1 to 10% strain, frequency=10 rads^−1, 10 points per decade). Sweep mode is “log” and temperature was carried out at 25° C. The critical strain (γc) value was determined from the storage-strain profiles of the hydrogel sample. The strain applied to the hydrogel sample increased from 0.1 to 100% (10 rad/s and 25° C.). Over a certain strain, a drop in the elastic modulus was observed, and the strain amplitude at which storage moduli just begins to decrease by 5% from its maximum value was determined and taken as a measure of the critical strain of the hydrogels, which correspond to the breakdown of the cross-linked network in the hydrogel sample.
The frequency ranges from 200 rad/s to 0.1 rad/s, depending on the viscoelastic properties of each sample. A suitable strain was used to ensure the linearity of dynamic viscoelasticity.

Chain of COX-2 (P35354 18-604 limits assumed): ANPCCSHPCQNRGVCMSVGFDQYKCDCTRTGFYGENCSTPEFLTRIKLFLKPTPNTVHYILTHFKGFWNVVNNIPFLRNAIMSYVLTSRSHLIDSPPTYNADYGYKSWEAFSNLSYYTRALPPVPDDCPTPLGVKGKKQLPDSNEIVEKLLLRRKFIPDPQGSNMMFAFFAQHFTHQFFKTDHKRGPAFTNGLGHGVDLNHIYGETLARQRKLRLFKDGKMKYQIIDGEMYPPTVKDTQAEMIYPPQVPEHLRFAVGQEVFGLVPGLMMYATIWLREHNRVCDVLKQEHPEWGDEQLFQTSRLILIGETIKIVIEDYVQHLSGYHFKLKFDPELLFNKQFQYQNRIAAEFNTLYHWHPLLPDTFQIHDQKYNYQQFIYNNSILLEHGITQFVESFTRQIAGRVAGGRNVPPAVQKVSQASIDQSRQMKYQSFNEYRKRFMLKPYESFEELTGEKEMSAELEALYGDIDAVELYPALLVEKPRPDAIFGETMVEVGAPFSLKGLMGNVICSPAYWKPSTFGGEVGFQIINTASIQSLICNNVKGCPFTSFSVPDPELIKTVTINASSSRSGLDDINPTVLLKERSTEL

2-(Naphthalen-2-yl)acetyl-(D)-Phe-(D)-Phe-(D)-Lys(NBD)-(D)-Tyr phosphate [14b]
time until fluorescence emerges (HeLa cells; with 25 μM CinnGEL 2Me (PTP1B inhibitor)): 5 min
time until cells exhibit strong fluorescence (HeLa cells; without PTP1B inhibitor): 2 min

2-(Naphthalen-2-yl)acetyl-(D)-Phe-(D)-Phe-(D)-Lys-(D)-Tyr phosphate [11b]
time to form hydrogel after addition of ALP [1]: ≤ 24 h
time at which dephosphorylation finishes (ALP): 48 h

2-(Naphthalen-2-yl)acetyl-(L)-Phe-(L)-Phe-(L)-Lys-(L)-Tyr phosphate [11a, reference compound]
time at which dephosphorylation finishes (ALP): 48 h

COc1ccc2cc([C@H](C)C(=O)N[C@@H](Cc3ccccc3)C(=O)N[C@@H](Cc3ccccc3)C(=O)O)ccc2c1 [L-1, Naproxen-L-Phe-L-Phe]
IC50 (COX-1): 986 µM
IC50 (COX-2): 715 µM

COc1ccc2cc([C@H](C)C(=O)N[C@@H](Cc3ccccc3)C(=O)N[C@@H](Cc3ccccc3)C(=O)N[C@@H](Cc3ccc(O)cc3)C(=O)O)ccc2c1 [L-2, Naproxen-L-Phe-L-Phe-L-Tyr]
IC50 (COX-1): 294 µM
IC50 (COX-2): 144 µM

COc1ccc2cc([C@H](C)C(=O)N[C@H](Cc3ccccc3)C(=O)N[C@H](Cc3ccccc3)C(=O)O)ccc2c1 [compound 1, Naproxen-D-Phe-D-Phe]
IC50 (COX-1 (ovine) enzyme): 854 µM
hydrogelator released from hydrogel [2]: 6.5%
critical strain [3]: 1.0%
storage modulus G′ [3]: 5.3×10^4 Pa

COc1ccc2cc([C@H](C)C(=O)N[C@H](Cc3ccccc3)C(=O)N[C@H](Cc3ccccc3)C(=O)N[C@H](CCCCN)C(=O)N[C@H](Cc3ccc(O)cc3)C(=O)O)ccc2c1 [compound 4, Npx-ffky] (Naproxen-[dF][dF][dK][dY]-OH)
hydrogelator released from hydrogel [2]: 19.8%
critical strain [3]: 5.5%
storage modulus G′ [3]: 1.5×10^2 Pa
